Measurements from patent US6063812A, “Fumagillol derivatives and processes for preparing the same” (Chong Kun Dang Corporation, priority 1998, dated 2000).
Converted amounts (≈) assume the structure as drawn. Read-outs that look alike come from different tables or passages of the source.

How the values were obtained:
[1] = system: EL-4 (Lymphoma, murine) cells; test: Inhibiting activity on angiogenesis in vitro: EL-4 cells, MTT method; type: cell-based; conditions: Mus musculus, EL4, 72 h, read-out: IC50, EL-4
Protocol: (§1) The compound sample dissolved in DMSO was diluted to ten times by using MEM culture medium (in case of CPAE cells) without adding FBS (Fetal Bovine Serum), and RPMI 1640 culture (in case of EL-4 and P388D1 cells), and 20 μl of the solution was poured to each well of 96 well plate in triplicate for every concentration gradient. Then, each cell suspension was prepared and poured to examine the inhibiting activity on angiogenesis.
In case of EL-4 (Lymphoma, murine) and P388D1 (leukemia, mouse) cells, a cell suspension having 1×10^4 cells/ml was prepared with RPMI1640 (+10% FBS) culture medium, and after pouring the suspension (180 μl) to each well of 96 well plate, they were cultured in a CO2 incubator (5% CO2, humidified) for 3 days.

[2] = system: CPAE (Calf Pulmonary Artery Endothelial) cells; test: Inhibiting activity on angiogenesis in vitro: CPAE cells, SRB method; type: cell-based; conditions: Bos taurus, Endothelial cell, 96 h, 4 days, 10% FBS + ECGS
Protocol: as §1
In case of CPAE (Calf Pulmonary Artery Endothelial) cells (used after 2-3 subcultures), a cell suspension having 7×10^3 cells/ml was prepared with MEM (+10% FBS+50 μg/ml ECGS) medium, and after pouring the suspension (180 μl) to each well of 96 well plate, they were cultured in a CO2 incubator (5% CO2, humidified) for 4 days.

[3] = EL-4 cells, 3 days, MTT method, 10% FBS

Structure (SMILES) | IC50 [1, 3] [ng/mL] | IC50 [2] [ng/mL] | IC50 [1] [ng/mL]
COc1ccc(/C=C/C(=O)O[C@@H]2CC[C@]3(CO3)[C@@H]([C@@]3(C)O[C@@H]3CC=C(C)C)[C@@H]2OC)cc1 [Example 2, O-(4-methoxycinnamoyl)fumagillol] | 0.0022 (≈ 0.00497 nM) | 0.0017 | 
COc1cc(/C=C/C(=O)O[C@@H]2CC[C@]3(CO3)[C@@H]([C@@]3(C)O[C@@H]3CC=C(C)C)[C@@H]2OC)cc(OC)c1OC [Example 3, O-(3,4,5-trimethoxycinnamoyl)fumagillol] |  |  | 1.1e-05 (≈ 2.19e-05 nM)
CO[C@@H]1[C@H](OC(=O)/C=C/c2ccc(Cl)cc2)CC[C@]2(CO2)[C@H]1[C@@]1(C)O[C@@H]1CC=C(C)C [Example 4, O-(chlorocinnamoyl)fumagillol] | 0.84 (≈ 1.88 nM) | 0.99 | 
COc1cc(/C=C/C(=O)O[C@@H]2CC[C@](O)(CCl)[C@@H]([C@@]3(C)O[C@@H]3CC=C(C)C)[C@@H]2OC)cc(OC)c1OC [Example 5, 4-(3,4,5-trimethoxycinnamoyl)oxy-2-(1,2-epoxy-1,5-dimethyl-4-hexenyl)-3-methoxy-1-chloromethyl-1-cyclohexanol] | 1.1e-05 (≈ 2.04e-05 nM) | 4.8e-05 | 
CO[C@@H]1[C@H](OC(=O)/C=C/c2ccc([N+](=O)[O-])cc2)CC[C@]2(CO2)[C@H]1[C@@]1(C)O[C@@H]1CC=C(C)C [Example 7, O-(4-nitrocinnamoyl)fumagillol] | 0.054 (≈ 0.118 nM) | 0.012 | 
CO[C@@H]1[C@H](OC(=O)/C=C/c2ccc(OC(C)=O)cc2)CC[C@]2(CO2)[C@H]1[C@@]1(C)O[C@@H]1CC=C(C)C [Example 9, O-(4-acetoxycinnamoyl)fumagillol] | 0.0066 (≈ 0.014 nM) | 0.0044 | 
COc1cc(/C=C/C(=O)O[C@@H]2CC[C@]3(CO3)[C@@H]([C@@]3(C)O[C@@H]3CC=C(C)C)[C@@H]2OC)cc(OC)c1OC(C)=O [Example 11, O-(4-acetoxy-3,5-dimethoxycinnamoyl)fumagillol] | 0.00032 (≈ 0.000603 nM) | 0.00021 | 
COc1cc(/C=C/C(=O)O[C@@H]2CC[C@]3(CO3)[C@@H]([C@@]3(C)O[C@@H]3CC=C(C)C)[C@@H]2OC)cc(OC)c1O [Example 12, O-(3,5-dimethoxy-4-hydroxycinnamoyl)fumagillol] | 0.00069 (≈ 0.00141 nM) | 0.00073 | 
COc1ccc(/C=C/C(=O)O[C@@H]2CC[C@](O)(CCl)[C@@H]([C@@]3(C)O[C@@H]3CC=C(C)C)[C@@H]2OC)cc1 [Example 13, 4-(4-methoxycinnamoyl)oxy-2-(1,2-epoxy-1,5-dimethyl-4-hexenyl)-3-methoxy-1-chloromethyl-1-cyclohexanol] | 0.0016 (≈ 0.00334 nM) | 0.0011 | 
CO[C@@H]1[C@H](OC(=O)/C=C/c2ccc(N(C)C)cc2)CC[C@]2(CO2)[C@H]1[C@@]1(C)O[C@@H]1CC=C(C)C [Example 14, O-(4-dimethylaminocinnamoyl)fumagillol] | 0.00049 (≈ 0.00108 nM) | 0.00063 | 
CO[C@@H]1[C@H](OC(=O)/C=C/c2ccc(N)cc2)CC[C@]2(CO2)[C@H]1[C@@]1(C)O[C@@H]1CC=C(C)C [Example 15, O-(4-aminocinnamoyl)fumagillol] | 0.0043 (≈ 0.0101 nM) | 0.0025 | 
COc1cc(/C=C/CO[C@@H]2CC[C@]3(CO3)[C@@H]([C@@]3(C)O[C@@H]3CC=C(C)C)[C@@H]2OC)cc(OC)c1OC [Example 17, O-(3,4,5-trimethoxycinnamyl)fumagillol] | 0.0015 (≈ 0.00307 nM) | 0.0012 | 
CO[C@@H]1[C@H](OC(=O)/C=C/c2ccc(OCCN(C)C)cc2)CC[C@]2(CO2)[C@H]1[C@@]1(C)O[C@@H]1CC=C(C)C [Example 18, O-(4-dimethylaminoethoxycinnamoyl)fumagillol] | 0.00041 (≈ 0.000821 nM) | 0.00052 | 
COc1ccc(/C=C/C(=O)O[C@@H]2CC[C@]3(CO3)[C@@H]([C@@]3(C)O[C@@H]3CC=C(C)C)[C@@H]2OC)cc1CN(C)C [Example 19, O-(3-dimethylaminomethyl-4-methoxycinnamoyl)fumagillol] | 0.00057 (≈ 0.00114 nM) | 0.00032 | 
CO[C@@H]1[C@H](OC(=O)/C=C/c2ccc3c(c2)OCO3)CC[C@]2(CO2)[C@H]1[C@@]1(C)O[C@@H]1CC=C(C)C [Example 20, O-(3,4-methylenedioxycinnamoyl)fumagillol] | 0.00022 (≈ 0.000482 nM) | 0.00012 | 
COc1cc(N)c(/C=C/C(=O)O[C@@H]2CC[C@]3(CO3)[C@@H]([C@@]3(C)O[C@@H]3CC=C(C)C)[C@@H]2OC)cc1OC [Example 21, O-(3,4-dimethoxy-6-aminocinnamoyl)fumagillol] | 0.00082 (≈ 0.00168 nM) | 0.00083 | 
CO[C@@H]1[C@H](OC(=O)/C=C/c2ccc(N(C)C)cc2)CC[C@](O)(CCl)[C@H]1[C@@]1(C)O[C@@H]1CC=C(C)C [Example 25, 4-(4-dimethylaminocinnamoyl)oxy-2-(1,2-epoxy-1,5-dimethyl-4-hexenyl)-3-methoxy-1-chloromethyl-1-cyclohexanol] | 0.00041 (≈ 0.000833 nM) | 0.00033 | 
CO[C@@H]1[C@H](OC(=O)/C=C/C=C/C=C/C=C/C(=O)O)CC[C@]2(CO2)[C@H]1[C@@]1(C)O[C@@H]1CC=C(C)C [Fumagillin, fumagillin, reference compound] |  |  | 1.6 (≈ 3.49 nM)
